In PMC12064818, “A general assay platform to study protein pharmacology using ligand-dependent structural dynamics” (Nature Communications, 2025):

Each molecule was assayed against T1, FLuc-C-HiBiT (Photinus pyralis, UniProt P08659) (assay: biochemical). Conditions: enzyme activity, 10 uM ATP; read-out: IC50 or SDR50 (mM) / FLuc E.
T1 construct: firefly luciferase with C-terminal HiBiT tag, E. coli expressed
T1 sequence (P08659 whole entry, looked up): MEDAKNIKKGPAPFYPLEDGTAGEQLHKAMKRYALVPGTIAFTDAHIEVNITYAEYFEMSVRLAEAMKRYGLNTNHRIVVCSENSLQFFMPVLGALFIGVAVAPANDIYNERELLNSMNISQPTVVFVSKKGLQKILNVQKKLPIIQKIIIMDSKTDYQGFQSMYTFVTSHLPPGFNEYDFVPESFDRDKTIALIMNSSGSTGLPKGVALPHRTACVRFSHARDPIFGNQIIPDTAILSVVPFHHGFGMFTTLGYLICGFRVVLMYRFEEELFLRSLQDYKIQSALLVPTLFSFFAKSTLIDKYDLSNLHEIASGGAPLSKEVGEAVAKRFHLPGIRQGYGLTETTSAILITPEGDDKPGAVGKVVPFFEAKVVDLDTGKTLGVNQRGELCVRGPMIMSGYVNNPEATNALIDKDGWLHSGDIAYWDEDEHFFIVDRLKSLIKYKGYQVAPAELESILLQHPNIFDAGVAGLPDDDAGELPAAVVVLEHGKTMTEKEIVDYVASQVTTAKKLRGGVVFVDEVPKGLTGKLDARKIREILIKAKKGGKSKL

Compound	IC50 [µM]
Cc1ccc(C(=O)Nc2ccc(-c3nc4ccccc4s3)c(O)c2)cc1 [NCGC00594710-01]	> 30
CN1CCCN(C(=O)Nc2ccc3c(c2)OCCO3)c2ccccc21 [NCGC00470832-01]	9.89
Cc1ccc(NC(=O)Nc2ccccc2)c(=O)n1CC(=O)NCC1CCCO1 (stereo not drawn) [NCGC00430764-01]	11.1
c1ccc(Nc2cc3c(cn2)CN(Cc2ccsc2)CCN3)cc1 [NCGC00411091-01]	14.3
COc1ccc(C(=O)Nc2ccc3n(c2=O)C[C@H]2C[C@@H]3CN(C(=O)CCCC(=O)O)C2)cc1 [NCGC00397987-01]	15.7
CC(=O)N1CCNc2cc(-c3cccc(F)c3)ncc2C1 [NCGC00411252-01]	25.4
Cc1nccn1CCN(C)c1ccc(-c2nc(COc3ccccc3)no2)cn1 [NCGC00428976-01]	9.89
COc1ccc(-c2nc3ccccc3s2)cc1NC(=O)c1ccc(C#N)cc1F [NCGC00103038-01]	> 30
CCc1ccccc1Nc1nc(-c2cccc(OC)c2OC)no1 [NCGC00422354-01]	11.1
COc1ccc(CCNc2nc3ccccc3c3nc(-c4cccc(C)c4)nn23)cc1OC [NCGC00112564-01]	11.1
CN(C)c1cccc(C(=O)NC2CCN(c3cc(-c4ccc(Cl)cc4)n[nH]3)C2)c1 (stereo not drawn) [NCGC00437918-01]	11.1
Cc1c(C(=O)Nc2cccc(-c3nc4ccccc4s3)c2)oc2ccc(F)cc12 [NCGC00119183-01]	> 30
COc1ccccc1OC(C)C(=O)Nc1ccc(-c2nc3ccccc3s2)cc1 (stereo not drawn) [NCGC00119131-01]	> 30
CN1CCNc2cc(Nc3ccc(F)c(Cl)c3)ncc2C1 [NCGC00411263-01]	12.8
Cc1ccc(C(=O)NC2CC2)cc1-c1ccc2[nH]ncc2c1 [NCGC00242033-03]	> 30
O=C(Nc1cccnc1)c1nc2c(o1)CCN(Cc1nccs1)CC2 [NCGC00413267-01]	20.2
c1cncc(Nc2cc3c(cn2)CN(Cc2c[nH]cn2)CCN3)c1 [NCGC00411246-03]	> 30
Cn1cc(-c2ccc(Cl)cc2)cc1C(=O)O [NCGC00432667-01]	> 30
CCOc1nccn2c(-c3ccc(CNC(=O)CNC(C)=O)cc3)cnc12 [NCGC00413921-01]	18
CCc1noc(-c2nc(-c3ccc4c(c3)OCO4)no2)n1 [NCGC00450064-01]	9.89

Compound	IC50 [µM]
O=C1c2cnc(-c3cccc(CO)c3)nc2OCCN1c1cccc(C(F)(F)F)c1 [NCGC00413455-01]	20.2
Cc1ccccc1-c1noc(-c2ccc(N3CCCC3)c([N+](=O)[O-])c2)n1 [NCGC00119417-01]	11.1
COc1c(C)cccc1C(=O)Nc1ccc(-c2nc3ccccc3s2)c(Cl)c1 [NCGC00102004-01]	> 30
CCN(CC1CCOCC1)C(=O)c1cccnc1SC/C=C/c1ccccc1 [NCGC00433298-01]	12.4
COc1ccc2cc(C3CN(C(=O)Cc4ccc(O)cc4)CCO3)ccc2c1 (stereo not drawn) [NCGC00430869-01]	9.89
O=C(NC[C@H]1Cn2cc(-c3ccc4c(c3)OCCCO4)nc2CO1)c1ccc2c(c1)OCO2 [NCGC00392108-01]	9.89
COc1ccc(C(=O)NCCC2CCN(C(=O)Nc3cc(F)cc(F)c3)CC2)cc1 [NCGC00425013-01]	9.89
CCCC(=O)N1CCN(c2nc3ccc(F)cc3s2)CC1 [NCGC00137065-01]	11.1
CC(=O)Nc1cccc(C(=O)NCCn2ccn3nc(-c4ccc(C)cc4C)cc3c2=O)c1 [NCGC00456962-01]	9.89
Cc1ccc(C2Cn3nnc(C(=O)N4CCC(C(=O)NCc5ccccn5)CC4)c3CO2)cc1 (stereo not drawn) [NCGC00449551-01]	11.1
COc1ccc(NC(=O)Nc2ccc(C)n(CC(=O)N3CCCCCC3)c2=O)cc1 [NCGC00430834-01]	9.89
C=C1[C@H](CO)[C@@H](O)C[C@@H]1n1cnc2c(=O)[nH]c(N)nc21 [NCGC00164563-11]	> 30
O=C(COc1ccc(Cl)cc1)Nc1ccc(-c2nc3ccccc3s2)c(O)c1 [NCGC00098783-01]	> 30
CCOC(=O)C1(C)C=C(Nc2cccc(C(=O)O)c2)C(=O)N1c1ccccc1 (stereo not drawn) [NCGC00100416-01]	12.4
COc1ccccc1CN1CCc2nc(C(=O)Nc3ccccc3)oc2CC1 [NCGC00413298-01]	16.1
Cc1ccc(C(=O)Nc2cccc3cccnc23)cc1Cl [NCGC00103195-01]	> 30
Cc1ccccc1-c1ccc(COc2ccc3c(cnn3CCC(=O)O)c2)cc1 [NCGC00418125-01]	16.1
Cc1cnc(CCNC(=O)Nc2ccc3c(c2)OCCO3)n1Cc1ccc(F)cc1 [NCGC00469838-01]	12.4
CCOc1cccc(NC(=O)CSc2ncc(-c3ccccc3)[nH]2)c1 [NCGC00106968-01]	> 30
COc1ccccc1C(=O)Nc1onc2c1CCCC2 [NCGC00115908-01]	9.89

The next molecules have a lower IC50 than those just listed; values first:

IC50 [µM]	Compound
3.94	CCNC(=O)C1C(c2cccc(NC(=O)c3ccc(OC)cc3)c2)OC(=O)N1Cc1ccc(C)cc1 (stereo not drawn) [NCGC00474207-01]
2.79	CCc1ccc(NC(=O)N2CCCC(c3noc(COc4ccccc4)n3)C2)cc1 (stereo not drawn) [NCGC00475587-01]
2.48	O=C(Nc1ccccc1F)c1ccc(-c2ccccc2)s1 [NCGC00114318-01]
3.94	CCOC(=O)N1CCc2c(sc(NCc3ccc(OCC)cc3)c2C(=O)Nc2ccc(OC)cc2OC)C1 [NCGC00140805-01]
1.97	COc1ccc(CNC(=O)Nc2cccc(-c3ccc(N4CCOCC4)nn3)c2)cc1 [NCGC00427608-01]
2.21	COc1ccc(-c2noc(Nc3ccccc3)n2)cc1 [NCGC00422340-01]
0.624	C#CCn1c(/C=C/c2ccc(Cl)cc2)nc2ccccc21 [NCGC00114864-01]
3.51	Cc1ccc2nc(-c3ccc(NC(=O)COc4ccc(Br)cc4Br)cc3)sc2c1 [NCGC00098202-02]
0.881	c1ccc(-n2ncc3c(N4CCCCC4)ncnc32)cc1 [NCGC00081373-03]
0.989	O=C(Nc1cccc(F)c1)Nc1cccc(-c2ccc(N3CCCCC3)nn2)c1 [NCGC00427644-01]
8.81	COc1cccc(-c2cc3c(=O)n(CCNC(=O)c4ccccc4Cl)ccn3n2)c1 [NCGC00457089-01]
5.56	Clc1ccc(-c2nc(-c3ccccn3)no2)cc1Cl [NCGC00075852-01]
5.56	O=C(Nc1ccc2oc(-c3ccccc3F)nc2c1)c1ccccc1Cl [NCGC00098974-01]
0.0785	CNc1ccc(-c2nc3ccccc3s2)cc1 [NCGC00165760-02]
6.4	C[S+](=O)([O-])CCn1ncc2cc(OCc3cccc(-c4ccccc4)c3)ccc21 [NCGC00418095-01]
1.11	COc1ccc(C)cc1NC(=O)Nc1cccc(-c2ccc(N3CCCCC3)nn2)c1 [NCGC00427638-01]
2.48	O=C(Nc1cccc(-c2ccc(N3CCOCC3)nn2)c1)Nc1cc(F)ccc1F [NCGC00427590-01]
0.00442	O=C(O)c1cccc(-c2noc(-c3ccc(F)cc3)n2)c1 [NCGC00168761-01]
3.51	Brc1ccccc1-c1nc(-c2ccccc2)no1 [NCGC00075547-01]
1.57	O=C(c1cc2ccc3cccnc3c2[nH]1)N1CCCCC1 [NCGC00126930-01]
1.97	O=C(Nc1cnc(-c2ccccc2)nc1)C1CCCCC1 [NCGC00432861-01]
6.24	Cc1ncccc1C(=O)N1CC(Oc2ccc(-c3nc(-c4ccccc4)no3)cc2)C1 [NCGC00441179-01]
7	CCOc1cc2sc(N3CCC(C(=O)Nc4ccc(C(C)C)cc4)CC3)nc2cc1Br [NCGC00113423-01]
